{
  "source": "patent US11464448B2",
  "about": "“Innate metabolic imaging of cellular systems” (Memorial Sloan Kettering Cancer Center, priority 2016, dated 2022)",
  "key": {"[1]": {"test_system": "orthotopic TRAMP-C2 prostate tumors", "experiment": "Tumor volume by MRI in orthotopic TRAMP-C2 prostate model during iron chelation therapy", "format": "in vivo, C57BL/6 mice", "details": "150 mg/kg, 5 days/week oral gavage; long dose duration (12 weeks); syngeneic hosts; n=10, p<0.001", "source_text": "(§1) Chelation of iron(III) has been proposed as a cancer treatment that causes reductions in tumor growth, presumably by reducing bioavailability of iron(III) to the cancer cells. However, no studies have addressed the possibility that chelation modulates TAM infiltration contributing to these anti-tumor effects. In order to investigate anti-tumor effects of iron chelation, FeMRI is used, as described herein, to monitor tumor growth in two mouse models. The faster growing MycCaP model and the slower growing TRAMP-C2 model were studied and contrasted to evaluate the effect of dose duration. Immune-competent, syngeneic murine FVB/N and C57BL/6 hosts underwent orthotopic prostatic injections of 5×10^4 cells (MycCaP and TRAMP-C2, respectively), and thereafter received either sham (H2O) or DFP (150 mg/kg, 5 days/week) by oral gavage until average primary tumor burden exceeded 1 cm^3 (determined by MM) in the treated group. […] At long dose durations (12 weeks) there was no growth of TRAMP-C2 orthotopic tumors implanted in syngeneic hosts (FIG. 3A, n=10, *p<0.001). […] (FIG. 3D, n=10, *p<0.05). […] Further, the ability to monitor TAM dynamics serially using FeMRI represents a technique that has translational use, bypassing the necessity for using invasive biopsy to obtain similar measures of stromal response to therapy."}, "[2]": {"test_system": "high-[iron(III)] TAM clusters in MycCaP tumors", "experiment": "FeMRI measurement of high-[iron(III)] TAM clusters in MycCaP tumors", "format": "in vivo, FVB/N mice", "protocol": "TAM clusters was measured by FeMRI at each week of treatment as a function of percent infiltration in MycCaP tumors. […] These low-[iron(III)] and high-[iron(III)] populations were mapped by thresholding the tumor Fe[(III)] distribution in these ranges on the FeMRI. The low-[iron(III)] map consisted of dense pixel clusters distributed throughout the tumor, while the high-[iron(III)] map contained sparse clusters with average cluster size of approximately 4 MRI pixel^2≈0.05 mm^2 primarily at the outer tumor margins (n=10 mice). To quantify the extent of infiltration of these TAM clusters, an image-processing algorithm was developed in-house with Matlab and ImageJ. This tool is based on concentric rake sampling that identifies […] CD68^+ or high-[iron(III)] colonies and maps them as a function of % infiltration into the tumor (inset FIG. 2J, […] outer edge, 100% tumor center) for arbitrarily sized histological (FIG. 2J, left […]) regions of interest. […] Immune-competent, syngeneic murine FVB/N and C57BL/6 hosts underwent orthotopic prostatic injections of 5×10^4 cells (MycCaP and TRAMP-C2, respectively), and thereafter received either sham (H2O) or DFP (150 mg/kg, 5 days/week) by oral gavage until average primary tumor burden exceeded 1 cm^3 (determined by MM) in the treated group. […]"}, "[3]": {"test_system": "high-iron(III)+ CD68+ TAMs in MycCaP tumors", "experiment": "Whole slice histology (Prussian Blue iron(III), CD68) of TAM infiltration in MycCaP tumors", "format": "in vivo, FVB/N mice", "source_text": "In order to further quantify these low- and high-[iron(III)] sub-populations, quantitative histology was used. […] In low-iron(III)^+ regions, prostate cancer cells were found sparsely studded with ferritin particles less than 1 μm^2 (at an approximate density of 1000 ferritin particles/field; no CD68^+ macrophages were observed (FIG. 2F, 2G n=18 fields, n=6 mice). In high-iron(III)^+ regions CD68^+ TAMs were found bearing dense hemosiderin deposits in groups of approximately 24 macrophages/TAM cluster (FIG. 2F, 2G, n=18 fields, n=6 mice). With these histological findings, it was possible to estimate the per-pixel TAM number in high-[iron(III)] MRI clusters at approximately 6 macrophages/pixel. To quantify the extent of infiltration of these TAM clusters, an image-processing algorithm was developed in-house with Matlab and ImageJ. […] Immune-competent, syngeneic murine FVB/N and C57BL/6 hosts underwent orthotopic prostatic injections of 5×10^4 cells (MycCaP and TRAMP-C2, respectively), and thereafter received either sham (H2O) or DFP (150 mg/kg, 5 days/week) by oral gavage until average primary tumor burden exceeded 1 cm^3 (determined by MM) in the treated group. […]"}, "[4]": {"test_system": "orthotopic MycCaP prostate tumors", "experiment": "Tumor volume by MRI in orthotopic MycCaP prostate model during iron chelation therapy", "format": "in vivo, FVB/N mice", "details": "150 mg/kg, 5 days/week oral gavage; two weeks of gavage beginning one-week post-implantation at 100 mm^3; vs sham (H2O); n=10, p<0.05", "source_text": "as §1"}},
  "data": [
    {"smiles": "Cc1c(O)c(=O)ccn1C", "note": "[DFP, deferiprone]", "values": [
      {"measurement": "tumor growth", "setting": "[1]", "result": "no growth"},
      {"measurement": "rates of TAM infiltration", "setting": "[2]; derived from changes of FeMRI infiltration profiles over time, n=10, p<0.05", "result": "reduced"},
      {"measurement": "FeMRI measurements of TAMs", "setting": "[2]; over the full course of treatment", "result": "showed reductions"},
      {"measurement": "histological TAM infiltration profile", "setting": "[3]; MycCaP tumor at week 3 of treatment, vs untreated group, p<0.05", "result": "less TAMs than the untreated group"},
      {"measurement": "high-iron(III)+ and CD68+ positive cells (histological analysis)", "setting": "[3]; MycCaP tumors, 150 mg/kg oral gavage, data not shown", "result": "reduced"},
      {"measurement": "smaller tumor volumes by the endpoint of the study", "setting": "[4]", "result": 40, "unit": "%"}
    ]}
  ]
}
